Here are results for eleven compounds from ChEMBL document CHEMBL1201862, “PubChem BioAssay data set” (2004).

Each structure is given as a SMILES string.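 Dose response: 5 concentrations. Exposure: 48 h. Format: 96-well plates. Endpoint: linear interpolation; highest concentration if not reached. At the GI50, growth is halved.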 The source made the active and inactive calls. Rule as the data show it: active = GI50 up to about 1.1 µM and inactive = higher. Bounds are passed on as bounds.

Some test systems named below: LOX IMVI; MOLT-4; NCI-H522; HOP-92; OVCAR-8; SK-OV-3; UACC-62; NCI-H23; UACC-257; CCRF-CEM; ACHN; RPMI-8226; OVCAR-3; KM12; NCI-H226; A498; HCT-116; U-251; SN12C; DU-145.
What all share (assay): NCI-60 cell line screen, 48 h

For `C/C(CC(=O)Nc1ccc(C)cc1)=N\NC(N)=S`, the GI50 in the assay on LOX IMVI is 54.8 µM (inactive); with MOLT-4 it was > 100 µM (inactive); with NCI-H522, 94 µM (inactive); in the assay with HOP-92, > 100 µM (inactive); in the assay with OVCAR-8, > 100 µM (inactive); in the assay on SK-OV-3, > 100 µM (inactive). In addition, the GI50 in the assay on UACC-62 is > 100 µM (inactive); in the assay with NCI-H23 it was > 100 µM (inactive); in the assay on UACC-257 it was > 100 µM (inactive); with CCRF-CEM, > 100 µM (inactive); in the assay with ACHN it was 79.4 µM (inactive); in the assay on RPMI-8226, > 100 µM (inactive). For the same compound, the GI50 was > 100 µM (inactive) in the assay with OVCAR-3; 77.4 µM (inactive) in the assay with KM12; > 100 µM (inactive) in the assay on NCI-H226; > 100 µM (inactive) in the assay with A498; > 100 µM (inactive) in the assay on HCT-116; > 100 µM (inactive) with U-251.
Turning to `CCN1C(=O)N(C)C(O)c2c1nc1ccccn1c2=O` (centres undefined), the GI50 is 17.5 µM (inactive) with LOX IMVI; 32.1 µM (inactive) in the assay on MOLT-4; 25.3 µM (inactive) in the assay on NCI-H522; 25.6 µM (inactive) in the assay on HOP-92; 18.9 µM (inactive) in the assay with OVCAR-8; 26.1 µM (inactive) in the assay on SK-OV-3. Further, the GI50 is 0.103 µM (active) in the assay on UACC-62; 24.9 µM (inactive) in the assay with NCI-H23; 40.1 µM (inactive) in the assay with UACC-257; 27.8 µM (inactive) in the assay with CCRF-CEM; 0.232 µM (active) in the assay on ACHN; 27 µM (inactive) in the assay on RPMI-8226. The GI50 in the assay on OVCAR-3 was 26.1 µM (inactive); with KM12 it was 36.5 µM (inactive); in the assay on NCI-H226, 60.7 µM (inactive); in the assay on SN12C, 23.3 µM (inactive); in the assay on A498 it was 25.6 µM (inactive); with HCT-116 it was 28.6 µM (inactive). Further, in the assay with U-251, the GI50 was 30.8 µM (inactive).
`N/C(=N\O)N/N=C/c1cccc(F)c1`: the GI50 was 26.8 µM (inactive) with LOX IMVI; 43.5 µM (inactive) in the assay on MOLT-4; 29.5 µM (inactive) with NCI-H522; 42.9 µM (inactive) in the assay with HOP-92; 33 µM (inactive) with OVCAR-8; 55.7 µM (inactive) in the assay with SK-OV-3. The GI50 with UACC-62 was 16.8 µM (inactive); in the assay with NCI-H23, 39 µM (inactive); with UACC-257, 52.4 µM (inactive); in the assay with CCRF-CEM it was 23.8 µM (inactive); in the assay on ACHN, 27.7 µM (inactive); in the assay with RPMI-8226 it was 39 µM (inactive). For the same compound, the GI50 in the assay on OVCAR-3 is 75.2 µM (inactive); in the assay with KM12, 34.1 µM (inactive); in the assay on NCI-H226 it was 21 µM (inactive); in the assay on SN12C, 44.2 µM (inactive); in the assay with A498, 40 µM (inactive); with HCT-116, 41.6 µM (inactive). In addition, the GI50 in the assay on U-251 was 36.1 µM (inactive).
As to `Cn1cccc1/C=C/c1cc(Br)c(/C=C/c2cccn2C)cc1Br`, the GI50 is 18.3 µM (inactive) with LOX IMVI; 11.6 µM (inactive) in the assay on MOLT-4; 14.5 µM (inactive) with NCI-H522; 11.7 µM (inactive) in the assay with HOP-92; > 10 µM (inactive) with OVCAR-8; 14.8 µM (inactive) in the assay on SK-OV-3. Further, the GI50 is 13.8 µM (inactive) with UACC-62; > 10 µM (inactive) in the assay with NCI-H23; 30.6 µM (inactive) with UACC-257; 15.2 µM (inactive) with CCRF-CEM; 10.2 µM (inactive) in the assay with ACHN; 15.2 µM (inactive) with RPMI-8226. Moreover, the GI50 was 16.1 µM (inactive) in the assay with OVCAR-3; 7.23 µM (inactive) in the assay on KM12; 12.3 µM (inactive) in the assay on NCI-H226; 21 µM (inactive) with SN12C; 21 µM (inactive) in the assay with A498; 16.3 µM (inactive) in the assay with HCT-116. In addition, the GI50 in the assay on U-251 was 13 µM (inactive).
For `CO/N=C(/C)c1cccc(Nc2nc3ccccc3c3[nH]c4ccccc4c23)c1`, the GI50 in the assay with LOX IMVI is 10.6 µM (inactive); in the assay on MOLT-4 it was 3.96 µM (inactive); with NCI-H522 it was 2.99 µM (inactive); in the assay on OVCAR-8, 6.22 µM (inactive); with SK-OV-3, 17.1 µM (inactive); in the assay on UACC-62, 6.03 µM (inactive). Also, the GI50 is 10.3 µM (inactive) with NCI-H23; 13.3 µM (inactive) in the assay with UACC-257; 3.57 µM (inactive) in the assay on ACHN; 5.7 µM (inactive) with OVCAR-3; 12.5 µM (inactive) in the assay on DU-145; 3.99 µM (inactive) with KM12. In addition, the GI50 in the assay with NCI-H226 is 13.7 µM (inactive); with SN12C it was 11.5 µM (inactive); with HCT-116, 3.16 µM (inactive); in the assay on U-251 it was 13.5 µM (inactive).
For `Cc1cn(C2C=CC(=O)C(C)O2)c(=O)[nH]c1=O` (centres undefined), the GI50 in the assay with LOX IMVI was 13.2 µM (inactive); in the assay on MOLT-4, 18 µM (inactive); in the assay on NCI-H522, 16.6 µM (inactive); in the assay with HOP-92 it was 15.9 µM (inactive); in the assay with OVCAR-8, 18.6 µM (inactive); in the assay with SK-OV-3, 33.8 µM (inactive). The GI50 in the assay on UACC-62 was 15.7 µM (inactive); with NCI-H23, 18.1 µM (inactive); in the assay with UACC-257, 14 µM (inactive); with CCRF-CEM, 6.07 µM (inactive); in the assay on ACHN it was 17.5 µM (inactive); with RPMI-8226, 20.5 µM (inactive). Also, the GI50 with OVCAR-3 was 17.4 µM (inactive); with KM12 it was 16.1 µM (inactive); in the assay with NCI-H226 it was 19.5 µM (inactive); in the assay with SN12C, 15.9 µM (inactive); in the assay with A498 it was 38.1 µM (inactive); in the assay on HCT-116, 12.2 µM (inactive). Further, the GI50 in the assay on U-251 is 15.3 µM (inactive).
Turning to `COc1ccc(S(=O)(=O)Nc2ccccc2C(=O)O)cc1`, the GI50 in the assay with LOX IMVI is > 100 µM (inactive); in the assay with MOLT-4 it was > 100 µM (inactive); with NCI-H522, > 100 µM (inactive); in the assay on HOP-92, 55.8 µM (inactive); with OVCAR-8, > 100 µM (inactive); in the assay with SK-OV-3, > 100 µM (inactive). Moreover, the GI50 with UACC-62, in the assay with NCI-H23, with UACC-257, in the assay on CCRF-CEM, in the assay with ACHN and with RPMI-8226 was > 100 µM (inactive) throughout. The GI50 in the assay with OVCAR-3, in the assay with KM12, with NCI-H226, in the assay on SN12C, in the assay on A498 and with U-251 was > 100 µM (inactive) in each case.
In the case of `CC(C)c1cccc(=O)c(O)c1`, the GI50 in the assay on LOX IMVI was 2.42 µM (inactive); in the assay on MOLT-4, 1.02 µM (active); in the assay with NCI-H522 it was 1.39 µM (inactive); with HOP-92, 1.75 µM (inactive); with OVCAR-8 it was 1.72 µM (inactive); with SK-OV-3 it was 15.8 µM (inactive). Also, the GI50 in the assay with UACC-62 was 2.67 µM (inactive); in the assay with NCI-H23 it was 2.53 µM (inactive); in the assay on UACC-257, 1.66 µM (inactive); in the assay with CCRF-CEM it was 0.845 µM (active); with ACHN it was 1.87 µM (inactive); in the assay on RPMI-8226 it was 2.14 µM (inactive). Besides, the GI50 in the assay with OVCAR-3 was 1.24 µM (inactive); with KM12, 8.34 µM (inactive); in the assay with NCI-H226, 6.32 µM (inactive); in the assay with SN12C it was 5.51 µM (inactive); in the assay with A498, 14.6 µM (inactive); with HCT-116, 1.72 µM (inactive). In addition, the GI50 with U-251 is 0.411 µM (active).
On to `CC(=O)OCC(=O)[C@@]12OC(C)(C)O[C@@H]1C[C@H]1[C@@H]3CC(C=O)=C4C=C(OCCCl)CC[C@]4(C)[C@@]3(F)[C@@H](O)C[C@@]12C` [FORMOCORTAL], for which the GI50 in the assay with LOX IMVI was 25.8 µM (inactive); in the assay on MOLT-4, 5.87 µM (inactive); in the assay with NCI-H522, 20.3 µM (inactive); in the assay with HOP-92, 20.9 µM (inactive); with OVCAR-8, 12.9 µM (inactive); in the assay on SK-OV-3 it was 1.39 µM (inactive). The GI50 with UACC-62 was > 100 µM (inactive); in the assay on NCI-H23, 15.8 µM (inactive); in the assay on UACC-257, 23.4 µM (inactive); in the assay with CCRF-CEM it was 0.486 µM (active); in the assay on ACHN, > 100 µM (inactive); in the assay with RPMI-8226 it was 2.58 µM (inactive). Further, the GI50 in the assay with OVCAR-3 was 25.9 µM (inactive); with KM12, 16.7 µM (inactive); in the assay on NCI-H226, 17.3 µM (inactive); in the assay on SN12C, 13.3 µM (inactive); with A498 it was 21.9 µM (inactive); in the assay on HCT-116, 10.4 µM (inactive). The GI50 with U-251 is 14.2 µM (inactive).
As to `CN(C)CCC(=O)c1ccccc1`, the GI50 in the assay on LOX IMVI was 36.4 µM (inactive); in the assay on MOLT-4 it was 21.5 µM (inactive); in the assay on NCI-H522 it was 0.693 µM (active); in the assay on HOP-92, 24.5 µM (inactive); with OVCAR-8, 36.6 µM (inactive); in the assay with SK-OV-3, > 57.1 µM (inactive). Also, the GI50 in the assay with UACC-62 is > 56.2 µM (inactive); in the assay with NCI-H23 it was > 61.8 µM (inactive); in the assay on UACC-257, 37.8 µM (inactive); with CCRF-CEM it was 23.4 µM (inactive); in the assay on ACHN it was > 57.5 µM (inactive); in the assay on RPMI-8226 it was 9.04 µM (inactive). For the same compound, the GI50 in the assay on OVCAR-3 was 42.7 µM (inactive); in the assay with KM12, 32.5 µM (inactive); in the assay on NCI-H226, > 58.7 µM (inactive); in the assay on SN12C, > 58.6 µM (inactive); in the assay with A498, > 71.6 µM (inactive); in the assay on HCT-116, 28.4 µM (inactive). For the same compound, the GI50 with U-251 is > 56.2 µM (inactive).
In the case of `COC1C=CC(C(=O)[N+]2=Cc3[nH]c4ccccc4c3CC2)O1` (centres undefined), the GI50 was > 100 µM (inactive) in the assay with LOX IMVI; 34.9 µM (inactive) with MOLT-4; 34.9 µM (inactive) with NCI-H522; > 100 µM (inactive) in the assay with HOP-92; > 100 µM (inactive) in the assay on OVCAR-8; 52.5 µM (inactive) with SK-OV-3. Further, the GI50 with UACC-62 was > 100 µM (inactive); in the assay on NCI-H23 it was > 100 µM (inactive); with UACC-257 it was > 100 µM (inactive); with CCRF-CEM, 27.6 µM (inactive); in the assay with ACHN, 97.9 µM (inactive); in the assay with RPMI-8226, 71.1 µM (inactive). Moreover, the GI50 with OVCAR-3 was 83.4 µM (inactive); with KM12, > 100 µM (inactive); in the assay on NCI-H226, 80.9 µM (inactive); in the assay on SN12C it was > 100 µM (inactive); in the assay with A498 it was > 100 µM (inactive); in the assay on HCT-116, > 100 µM (inactive). Also, in the assay on U-251, the GI50 was 37.9 µM (inactive).
